Inconclusive results are not listed. The source made the active and inactive calls. No rule for the calls is given here.

In one test the target is Histone acetyltransferase RTT109 (Candida albicans (strain SC5314 / ATCC MYA-2876)) (UniProt Q5AAJ8). In words: Rtt109/Vps75 acetyltransferase inhibitor potency, dose response, biochemical, cherry-picked hits, plate reader (AID 588764). Conditions: Rtt109/Vps75 HAT activity.
Sequence of Histone acetyltransferase RTT109 (Candida albicans (strain SC5314 / ATCC MYA-2876)) (Q5AAJ8 whole entry, looked up): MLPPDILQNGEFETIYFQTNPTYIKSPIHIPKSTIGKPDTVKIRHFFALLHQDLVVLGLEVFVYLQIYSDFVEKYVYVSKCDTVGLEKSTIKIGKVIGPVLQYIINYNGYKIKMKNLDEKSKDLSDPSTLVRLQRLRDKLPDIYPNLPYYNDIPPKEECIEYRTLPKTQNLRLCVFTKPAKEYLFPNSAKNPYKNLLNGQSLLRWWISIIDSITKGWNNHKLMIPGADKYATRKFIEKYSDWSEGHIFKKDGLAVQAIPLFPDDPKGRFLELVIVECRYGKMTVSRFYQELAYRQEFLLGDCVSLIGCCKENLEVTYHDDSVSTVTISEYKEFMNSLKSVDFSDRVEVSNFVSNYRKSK
The term AC50 denotes the concentration at which the activity in the assay is half-maximal. `CCCCCCCCCCCCCCCC[N+](C)(C)CCN(Cc1ccc(OC)cc1)c1ncccn1`: the AC50 was 16.1 µM. Still for that read-out and setting: the figure for `O=C(O)c1cccc(-n2sc3ccccc3c2=O)c1` is 10.5 µM; for `O=C(COC(=O)c1cnccn1)c1ccc([N+](=O)[O-])cc1` it is 11.4 µM. `COC(=O)c1cccc(-n2sc3ccccc3c2=O)c1`: the AC50 is 4.38 µM.

Consider `CCSS(=O)(=O)c1cccc2cccnc12`, for which the AC50 was 5.16 µM. On the same count and under the same terms, the figure for `CC1CCc2c(sc(N)c2C(N)=O)C1` (configuration not stated) is 20.5 µM. For `Cc1ccc2c(c1)C1C[N+](C)(CC(=O)c3ccc(Cl)cc3Cl)CCC1N2C(=O)c1ccc(F)cc1` (configuration not stated), the AC50 is 13.4 µM. As for `N#CC1=C(S)N(c2ccccc2)C(c2cccs2)NC1=O` (configuration not stated), the AC50 is 11.3 µM.

Take `CC1=C(C)/C(=N\OS(=O)(=O)c2ccc(C)cc2)C=CC1=O`: the AC50 is 8.6 µM. Still for that read-out and setting: the figure for `O=C(CCc1ccc(S(=O)(=O)N2CCOCC2)cc1)N/N=C/c1ccc(O)c(O)c1O` is 9.29 µM; for `O=C(O)c1ccccc1NS(=O)(=O)c1cccc(-n2sc3ccccc3c2=O)c1` it is 3.49 µM; for `CN(C)C(=S)SSC(=S)N(C)C` it is 3.4 µM. The same measure, in the same setting: the same measure for `O=S(=O)(Nc1cc(Sc2ncn[nH]2)c(O)c2ccccc12)c1ccccc1`: 4.1 µM; for `O=c1[nH]c2ccccc2n2c(-c3ccccc3)nnc12`: 1.98 µM; for `Cc1ccc(NC(=O)c2cc(N3C(=O)C=CC3=O)ccc2N2CCOCC2)cc1`: 7.03 µM.

Turning to `Cc1ccccc1N1C(S)=C(C#N)C(=O)NC1c1cccs1` (configuration not stated), the concentration at half-maximal activity (AC50) is 17.7 µM. The same measure, in the same setting: the same measure for `N#CC1=C(S)N(c2ccccc2)C(c2ccc(-c3cccc(Cl)c3)o2)NC1=O` (configuration not stated): 11.9 µM; for `O=C(c1nnsc1S(=O)c1ccc(Cl)cc1)N1CCOCC1` (configuration not stated): 6.04 µM. Same read-out and setting: the figure for `CCn1c(C)c(CS(=O)(=O)c2ccccc2)[nH]c1=O` is 11.3 µM. The same measure, in the same setting: the same measure for `COC(=O)c1cccc(N2C(=O)C(Cl)=C(N3CCOCC3)C2=O)c1`: 15.8 µM.

The test is the same for the next values; noted with them: Rtt109/Vps75 HAT activity, at 19.5 µM (top of the series).
As to `COCC(=O)OCC(=O)Nc1cc(C)c(C)cc1[N+](=O)[O-]`, the “activity change, negative = inhibition” value was “inactive”. Take `Cc1ccccc1C(=O)NC(NC(=S)Nc1ccc(S(N)(=O)=O)cc1)C(Cl)(Cl)Cl` (configuration not stated): the “activity change, negative = inhibition” value is “inactive”. On the same count and under the same terms, the entry for `COc1cc(NC(=O)C(Cc2ccccc2)n2cccc2)cc(OC)c1` (configuration not stated) is “inactive”; for `O=C(CNC(=O)c1ccc(Br)o1)NC12CC3CC(CC(C3)C1)C2` it is “inactive”; for `COc1cc(/C=N/N=C(N)N)ccc1OCc1ccccc1Cl` it is “inactive”. As for `Cc1ccccc1/C=C/C(=O)NCC(=O)N1CCC(N(C)C2CCCCC2C)CC1` (configuration not stated), the “activity change, negative = inhibition” value was “inactive”. On the same count and under the same terms, the same measure for `COc1ccc(CC(NC(C)=O)C(=O)NC2CCN(c3nc(C)cc(C)c3C#N)CC2)cc1` (configuration not stated): “inactive”. Still for that read-out and setting: the same measure for `COc1ccc(/C=C/C(=O)O)cc1S(=O)(=O)NCc1ccco1`: “inactive”. As to `Nc1c(C(=O)c2ccccc2)oc2ccc([N+](=O)[O-])cc12`, the “activity change, negative = inhibition” value is “inactive”. `Cc1cccc(-n2c(SCC(N)=O)nc3c(c2=O)C2(CCCCC2)Cc2ccccc2-3)c1`: the “activity change, negative = inhibition” value was “inactive”. Still for that read-out and setting: the entry for `Cc1cc(Cl)c(S(=O)(=O)N2CCCC2)cc1OCC(N)=O` is “inactive”.

On to `CCn1c(SCC(=O)Nc2cc(OC)c(OC)c(OC)c2)nnc1-c1cccs1`, for which the “activity change, negative = inhibition” value was “inactive”. Same read-out and setting: the entry for `CCOC(=O)c1c(C)oc2c(CC(=O)c3ccccc3)c(Cl)c(O)c(O)c12` is “inactive”; for `Cc1ccc(NC(=S)N(CCCN2CCCC2)Cc2cccn2Cc2ccc(Cl)cc2)cc1C` it is “inactive”. Same read-out and setting: the entry for `COc1ccc(-n2nc3c(c2NC(=O)c2ccc(N4C(=O)CCC4=O)cc2)CSC3)cc1` is “inactive”; for `CCOC(=O)C1=C(C)NC(C)=C(C(=O)OCC)C1C(=O)OCC(=O)NCCc1ccc(S(N)(=O)=O)cc1` it is “inactive”; for `C1CCC(C(CC2CCCCN2)C2CCCCC2)CC1` (configuration not stated) it is “inactive”.

Regarding `O=C(Nc1ccc(F)cc1)c1c(O)c2c(n(Cc3ccccc3)c1=O)CCCC2`, the “activity change, negative = inhibition” value was “inactive”. On the same count and under the same terms, the entry for `O=c1[nH]c2ccccc2c2oc(CCl)nc12` is “inactive”; for `Cc1ccccc1N1C(S)=C(C#N)C(=O)NC12CCCCC2` it is “inactive”. With `COCCNS(=O)(=O)c1ccc2c(c1)C(=NO)c1cc(S(=O)(=O)NCCOC)ccc1-2`, the “activity change, negative = inhibition” value was “inactive”. As to `Cc1ccc2c(c1)sc(C)[n+]2CCCS(=O)(=O)[O-]`, the “activity change, negative = inhibition” value was “inactive”.

Turning to `COc1ccccc1C(=O)NCC(=O)N=Nc1c(O)n(C(C)C)c2ccccc12`, the “activity change, negative = inhibition” value is “inactive”.

For `Cc1cc(OCc2ccc(C(=O)NN=C3CCCC3)cc2)ccc1Cl`, the “activity change, negative = inhibition” value is “inactive”.

For `Cc1cc(NC(=O)CCCn2nc([N+](=O)[O-])c(Cl)c2C)no1`, the “activity change, negative = inhibition” value was “inactive”. Still for that read-out and setting: the same measure for `COc1ccc(CNC(=O)C2(c3ccc(Cl)cc3)CC2)cc1`: “inactive”; for `CCOC(=O)C1CCCN(c2cc(=O)n(C3CCCCC3)c(=O)[nH]2)C1` (configuration not stated): “inactive”. Turning to `C#CCOCCOCCOCCNc1nc(N2CCN(C(=O)[C@H](CCCN=C(N)N)n3cc(C(N)[C@@H](C)CC)nn3)CC2)nc(N2CCN(C(=O)[C@H](CCCCN)n3cc([C@@H](N)CC(N)=O)nn3)CC2)n1` (some centres not stated), the “activity change, negative = inhibition” value is “inactive”.

On to `C#CCOCCOCCOCCNc1nc(N2CCN(C(=O)[C@H](CCCCN)n3cc([C@@H](N)CC(C)C)nn3)CC2)nc(N2CCN(C(=O)[C@H](CCCCN)n3cc([C@@H](N)CC(C)C)nn3)CC2)n1`, for which the “activity change, negative = inhibition” value is “inactive”. The same measure, in the same setting: the entry for `O=C(/C=C/c1ccc(Cl)cc1)NCc1ccncc1` is “inactive”.

As for `O=C(NNc1ccccc1)C(=O)NNS(=O)(=O)c1ccc(CCCl)cc1`, the “activity change, negative = inhibition” value was “inactive”. Same read-out and setting: the entry for `O=C1CCC(=O)N1c1ccc(-c2nc3ccccc3s2)cc1` is “inactive”. The same measure, in the same setting: the same measure for `CCOC(=O)C1CCN(c2ccc([N+](=O)[O-])c(C(C)=O)c2)CC1`: “inactive”.

Consider `COc1cccc(C(=O)NNC(=O)CCC(=O)O)c1`, for which the “activity change, negative = inhibition” value is “inactive”.

As for `CC(=O)NC(CC(=O)NC1CCCc2ccccc21)c1ccccc1` (configuration not stated), the “activity change, negative = inhibition” value was “inactive”. `O=C(NCc1ccc2c(c1)OCO2)c1ccc(CS(=O)Cc2cccc(Cl)c2)o1` (configuration not stated): the “activity change, negative = inhibition” value is “inactive”. For the compound `CCOC(=O)c1c(CSC(=N)N)n(C)c2cc(Br)c(OC(C)=O)cc12`, the “activity change, negative = inhibition” value is “inactive”. On the same count and under the same terms, the entry for `CC(C)OC(=O)N(C)c1ccc(C(O)(C(F)(F)F)C(F)(F)F)cc1` is “inactive”; for `CC1Cc2ccccc2N1C(=O)COC(=O)c1ccc(O)cc1` (configuration not stated) it is “inactive”; for `CCOC(=O)C1=C(C)N=c2s/c(=C/c3ccc(OCC(=O)O)cc3)c(=O)n2C1c1cc(OC)c(OC)c(OC)c1` (configuration not stated) it is “inactive”. As for `O=C(CNC(=O)c1ccncc1)N/N=C/c1cccc([N+](=O)[O-])c1`, the “activity change, negative = inhibition” value was “inactive”. On the same count and under the same terms, the same measure for `O=C(C1CCOCC1)N1CCCC(N2CCN(c3cccc(C(F)(F)F)c3)CC2)C1` (configuration not stated): “inactive”. On to `CN(C)c1ccc(NC(=O)/C=C/c2ccccc2Cl)cc1`, for which the “activity change, negative = inhibition” value was “inactive”. Still for that read-out and setting: the same measure for `O=C(O)c1cccc2c1NC(C(=O)O)C1CC(Sc3ccccc3[N+](=O)[O-])C(Cl)C21` (configuration not stated): “inactive”; for `CN(C)CCCN(C(=O)CCOc1ccccc1)c1nc2c(F)cccc2s1`: “inactive”; for `CCOC(=O)c1cc2c(N)c(C(=O)c3cc(C#N)c(SC)nc3C)sc2nc1C`: “inactive”. On the same count and under the same terms, the same measure for `COc1cc(SC#N)ccc1N=Cc1c(C)[nH]n(-c2ccc(C)c(C)c2)c1=O`: “inactive”.

As to `CC(C)c1nnc(NC(=O)CCC(=O)NCc2cccs2)s1`, the “activity change, negative = inhibition” value is “inactive”. As to `O=C1/C(=C/c2ccc(F)cc2)SC(=S)N1CC(=O)N1CCCCC1c1cccnc1` (configuration not stated), the “activity change, negative = inhibition” value was “inactive”. On the same count and under the same terms, the entry for `O=C(CCc1nnc(C2(c3ccc(Cl)cc3)CCC2)o1)NCCCn1cccn1` is “inactive”. The same measure, in the same setting: the same measure for `COc1ccc(C(=O)C(CCC(CNC(C)(C)C)C(=O)c2ccc(OC)cc2)CNC(C)(C)C)cc1` (configuration not stated): “inactive”; for `O=C(NC(=S)Nc1ccc(Oc2ccccc2)cc1)c1ccc(Cl)cc1`: “inactive”; for `CCC(=O)Nc1cc(C)c(OC)c(C)c1`: “inactive”. The same measure, in the same setting: the entry for `CCn1c(CCn2c3ccccc3c3ccccc32)n[nH]c1=S` is “inactive”; for `CN(C)C(CNC(=O)c1ccc(C(=O)c2ccccc2)cc1)c1ccccc1` (configuration not stated) it is “inactive”.

In the case of `O=C1COc2ccc(C(=O)c3ccccc3C(=O)NCc3ccco3)cc2N1`, the “activity change, negative = inhibition” value was “inactive”.

Take `Cc1ccc2nc(N(CCCN(C)C)C(=O)c3ccc4c(c3)CCCC4)sc2c1`: the “activity change, negative = inhibition” value is “inactive”. Still for that read-out and setting: the same measure for `O=C(CSC1=NCCN1)Nc1cccc([N+](=O)[O-])c1`: “inactive”; for `O=C(Cc1ccc(F)cc1)Nc1cccc2cccnc12`: “inactive”; for `COc1cccc(C(=O)NCc2nnc(SCC(=O)Nc3nccs3)n2-c2cccc(C)c2)c1`: “inactive”.

With `CC(=O)Nc1ccc(OCc2cccc([N+](=O)[O-])c2)cc1`, the “activity change, negative = inhibition” value is “inactive”. The same measure, in the same setting: the same measure for `O=C(O)C(Cc1ccccc1)N1C(=O)/C(=C/c2ccccc2)SC1=S` (configuration not stated): “inactive”.

(Values after PubChem BioAssay AID588764 (Broad Institute, 2011).)
